Reference: US20250368638A1, “BICYCLIC INHIBITORS OF NICOTINAMIDE […], COMPOSITIONS AND USES THEREOF” (President and Fellows of Harvard College, priority 2021, published 2025)

Tests used:
1-MNA = experiment: Plasma 1-MNA in mice after dosing with 11 (PK/PD); assay type: in vivo, Female C57B16/N mice
Source text: Doses were freshly prepared on the day of dosing. Vehicle compositions of each dose are listed below. […] Adjust pH with 1 N hydrochloric acid to obtain a clear solution or (b) 0.2% Tween 80/20% PEG-300 in water. Adjust pH with 1 N hydrochloric acid to obtain a clear solution
Then the samples were vortexed for 30 s.

[1] = Metabolic stability in pooled male mouse liver microsomes
Procedure: A master solution was prepared according to the following table.
40 μL of 10 mM NADPH solution was added to each well. The final concentrations of NADPH was 1 mM. The mixture was pre-warmed at 37° C. for 5 minutes. The negative control samples were prepared by replacing NADPH solutions with 40 μL of ultra-pure H2O. The negative control was used to exclude the misleading factor that resulted from instability of chemical itself. Samples with NADPH were prepared in duplicate. Negative controls were prepared in singlet.
The reaction was started with the addition of 4 μL of 200 μM control compound or test compound solutions. […] Samples were centrifuged at 3, 220 g for 40 minutes. Aliquot of 90 μL of the supernatant was mixed with 90 μL of ultra-pure H2O and then used for LC-MS/MS analysis.
For metabolite standard samples: 1 μL of 400 μM working solution was added to 89 μL master solution following by adding 400 μL of cold acetonitrile with internal standard (IS) (100 nM alprazolam, 200 nM Imipramine, 200 nM labetalol and 2 μM ketoprofen). Then 10 μL of 10 mM NADPH solution or ultra-pure H2O was added to the mixture. Samples were centrifuged at 3,220 g for 40 minutes to precipitate protein. Aliquots of 90 μL supernatant diluted by 90 μL of water was used for LC-MS/MS analysis.

hERG = hERG (Homo sapiens, UniProt Q12809); experiment: hERG safety evaluation by manual Patch-Clamp system; assay type: cell-based
Sequence of hERG (Q12809 whole entry): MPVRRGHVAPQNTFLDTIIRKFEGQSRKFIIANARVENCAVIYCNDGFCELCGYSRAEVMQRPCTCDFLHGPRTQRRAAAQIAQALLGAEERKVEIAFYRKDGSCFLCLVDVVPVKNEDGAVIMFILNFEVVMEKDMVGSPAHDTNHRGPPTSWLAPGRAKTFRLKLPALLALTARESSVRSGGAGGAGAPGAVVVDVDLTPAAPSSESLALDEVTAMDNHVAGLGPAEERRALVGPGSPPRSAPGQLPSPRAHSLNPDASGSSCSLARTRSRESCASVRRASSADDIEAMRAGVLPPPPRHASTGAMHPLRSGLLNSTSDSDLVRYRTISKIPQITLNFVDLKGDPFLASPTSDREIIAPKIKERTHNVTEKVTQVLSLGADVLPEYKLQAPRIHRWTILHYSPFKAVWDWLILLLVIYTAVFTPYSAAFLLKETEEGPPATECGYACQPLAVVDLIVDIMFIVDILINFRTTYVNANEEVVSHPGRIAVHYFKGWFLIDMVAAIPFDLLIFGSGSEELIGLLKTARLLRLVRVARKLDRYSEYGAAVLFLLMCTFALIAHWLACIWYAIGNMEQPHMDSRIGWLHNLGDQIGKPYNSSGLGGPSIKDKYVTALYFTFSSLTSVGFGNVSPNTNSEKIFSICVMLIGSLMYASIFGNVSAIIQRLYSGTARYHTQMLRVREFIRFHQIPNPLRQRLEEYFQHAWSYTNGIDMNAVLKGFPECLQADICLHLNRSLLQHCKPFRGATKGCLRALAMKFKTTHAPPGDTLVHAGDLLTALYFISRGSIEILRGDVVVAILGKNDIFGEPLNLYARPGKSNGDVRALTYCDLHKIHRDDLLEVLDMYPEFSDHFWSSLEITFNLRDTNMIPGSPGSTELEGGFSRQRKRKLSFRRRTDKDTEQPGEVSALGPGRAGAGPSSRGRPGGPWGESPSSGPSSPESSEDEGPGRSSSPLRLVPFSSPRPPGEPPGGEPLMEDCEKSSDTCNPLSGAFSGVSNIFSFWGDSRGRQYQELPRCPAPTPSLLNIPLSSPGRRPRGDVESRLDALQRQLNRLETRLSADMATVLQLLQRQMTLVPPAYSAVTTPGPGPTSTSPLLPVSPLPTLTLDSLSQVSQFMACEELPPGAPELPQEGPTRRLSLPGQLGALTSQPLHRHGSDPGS
Procedure: Cell lines and cell culture: hERG stably expressed HEK 293 cell line (Cat #K1236) was purchased from Invitrogen. The cells are cultured in 85% DMEM, 10% dialyzed FBS, 0.1 mM NEAA, 25 mM HEPES, 100 U/mL Penicillin-Streptomycin, 5 μg/mL Blasticidin and 400 μg/mL Geneticin. Cells are split using TrypLE™ Express about three times a week, and maintained between ˜40% to ˜80% confluence. Before the assay, the cells were onto the coverslips at 5×10^5 cells/per 6 cm cell culture dish and induced with doxycycline at 1 μg/mL for 48 hours.
[…]; 2) Intracellular solution (in mM): 140 KCl, 2 MgCl2, 10 EGTA, 10 HEPES and 5 MgATP (pH adjusted to 7.35 with KOH).
Experimental procedure: 1) Remove the coverslip from the cell culture dish and place it on the microscope stage in bath chamber; 2) Locate a desirable cell using the ×10 objective. Locate the tip of the electrode under the microscope using the ×10 objective by focusing above the plane of the cells. […]
Data analysis: Data that met the above criteria for hERG current quality were further analyzed as the following steps: 1) Percent hERG current inhibition was calculated using the following equation; 2) The dose response curve of test compounds was plotted with percentage of hERG current inhibition against the concentration of test compounds using Graphpad Prism 8.0, and fit to a sigmoid dose-response curve with a variable slope.

[2] = 10 mg/kg PO of 11, formulation a
[3] = male, mouse, pooled liver microsomes

In the case of `C[C@@H]1Cc2cc(C(N)=O)cnc2N1` [Compound 11, (2R)-2-methyl-2,3-dihydro-1H-pyrrolo[2,3-b]pyridine-5-carboxamide], the “AUClast of 1-MNA” value (1-MNA; 1 mg/kg IV of 11) is reported as 1289 ng·h/mL, the “AUClast of 1-MNA” value (1-MNA; [2]) is reported as 943 ng·h/mL and the “Cmax of 1-MNA” value (1-MNA; [2]) is reported as 54.9 ng/mL. For the same compound, the “Tmax of 1-MNA” value (1-MNA; [2]) was 24.0 h, the “AUClast of 1-MNA” value (1-MNA; 50 mg/kg of 11, formulation a) was 653 ng·h/mL and the “Cmax of 1-MNA” value (1-MNA; 50 mg/kg of 11, formulation a) was 54.8 ng/mL. For the same compound, the “Tmax of 1-MNA” value (1-MNA; 50 mg/kg of 11, formulation a) was 24.0 h, the “AUClast of 1-MNA” value (1-MNA; 50 mg/kg of 11, formulation b) was 667 ng·h/mL and the “Cmax of 1-MNA” value (1-MNA; 50 mg/kg of 11, formulation b) was 70.1 ng/mL. For the same compound, the “Tmax of 1-MNA” value (1-MNA; 50 mg/kg of 11, formulation b) was 8.17 h, the “Predicted hepatic CL” value ([1]; Mouse liver microsomes) was <18.76 mL/min/kg and the “Remaining (%) at 60 minutes” value ([1]; Mouse liver microsomes) was 93.24%. The CLint scaled at 2 μM [1, 3] was < 23.7 mL/min/kg, the half-life at 2 μM [1, 3] was > 4.26 h and the microsomal CLint at 2 μM [1, 3] was < 5.42 µL/min/mg. For the same compound, the inhibition at 5 min, 30 µM (hERG; human, HEK293 cells stably expressing hERG, pH 7.35, at 30 μM) was 15% and the IC50 (hERG; manual Patch-Clamp, hERG stably expressed HEK 293 cell line) was > 30 µM.
